# Laboratory results reported in US20070249620A1, “Urea Derivative” (priority 2004, published 2007).
# Legend:
# mouse DGAT1 = target: T1, mouse DGAT1 (Mus musculus, UniProt Q9Z2A7); experiment: DGAT1 inhibitory effect test (microsome fraction, [14C]-oleoyl-CoA, triglyceride radioactivity by TLC); type: biochemical; settings: 0.5 h; concentration of the test compound 0.1 μg/ml; mouse DGAT1 microsomes, 23° C., 30 minutes; read-out: Inhibitory ratio
# T1 construct: made in house; host or cells: insect cells (High Five, Sf9, Sf21, etc.), baculovirus expression system (Invitrogen)
# T1 sequence (Q9Z2A7 1-498): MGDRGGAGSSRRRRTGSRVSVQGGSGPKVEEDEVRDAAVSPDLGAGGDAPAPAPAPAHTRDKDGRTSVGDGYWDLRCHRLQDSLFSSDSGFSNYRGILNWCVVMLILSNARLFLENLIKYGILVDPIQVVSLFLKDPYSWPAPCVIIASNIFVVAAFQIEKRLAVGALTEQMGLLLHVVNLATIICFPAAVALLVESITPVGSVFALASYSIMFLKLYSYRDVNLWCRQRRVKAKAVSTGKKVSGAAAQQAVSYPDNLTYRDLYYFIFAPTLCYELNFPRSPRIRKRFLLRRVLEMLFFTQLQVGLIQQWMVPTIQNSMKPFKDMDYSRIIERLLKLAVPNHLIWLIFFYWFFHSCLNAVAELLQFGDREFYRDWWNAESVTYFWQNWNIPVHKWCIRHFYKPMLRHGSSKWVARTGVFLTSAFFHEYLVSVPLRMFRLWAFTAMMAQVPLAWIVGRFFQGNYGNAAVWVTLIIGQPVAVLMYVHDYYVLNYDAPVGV
# In short: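 Inhibition was scored from radiolabelled triglyceride separated by TLC, relative to vehicle and net of a 0-min background. The reaction ran for 30 min at room temperature (23 °C) in Tris-HCl pH 8.0 with MgCl2, BSA and Triton X-100. Substrates were 30 μM [14C]-oleoyl-CoA and 0.5 mM dioleoylglycerol, with mouse DGAT1 microsomes from baculovirus-infected insect cells as enzyme.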
melting point,inhibition at 0.1 µg/mL (mouse DGAT1),SMILES
148 to 150 °C,≥ 50%,"COc1ccc(C)cc1NC(=O)Nc1ccc(N2CCN(C(=O)Nc3ccc(OCC(O)CO)cc3C)CC2)cc1 (stereo not drawn) [Example 276, 4-{4-[3-(2-methoxy-5-methyl-phenyl)-ureido]-phenyl}-piperazine-1-carboxylic acid [4-(2,3-dihydroxy-propoxy)-2-methyl-phenyl]-amide]"
105 to 110 °C,≥ 50%,"COc1cc(NC(=O)Nc2ccc3c(c2)CCN(C(=O)Nc2ccc(OCCO)cc2Cl)C3)cc(OC)c1 [Example 266, 6-[3-(3,5-dimethoxy-phenyl)-ureido]-3,4-dihydro-1H-isoquinoline-2-carboxylic acid [2-chloro-4-(2-hydroxy-ethoxy)-phenyl]-amide]"
174 to 176 °C,≥ 50%,"COc1ccc(C)cc1NC(=O)Nc1ccc2c(c1)CCN(C(=O)Nc1ccc(OCC(O)CO)cc1C(F)(F)F)C2 (stereo not drawn) [Example 293, 6-[3-(2-methoxy-5-methyl-phenyl)-ureido]-3,4-dihydro-1H-isoquinoline-2-carboxylic acid [4-(2,3-dihydroxy-propoxy)-2-trifluoromethyl-phenyl]-amide]"
117 to 120 °C,≥ 50%,"COc1ccc(C)cc1NC(=O)Nc1ccc(C2=CCN(C(=O)Nc3ccc(OCCO)cc3Cl)CC2)cc1 [Example 256, 4-{4-[3-(2-methoxy-5-methyl-phenyl)-ureido]-phenyl}-3,6-dihydro-2H-pyridine-1-carboxylic acid [2-chloro-4-(2-hydroxy-ethoxy)-phenyl]-amide]"
173 to 175 °C,≥ 50%,"COc1ccccc1NC(=O)Nc1ccc(N2CCN(C(=O)Nc3ccc(OCCO)cc3Cl)CC2)c(Cl)c1 [Example 269, 4-{2-chloro-4-[3-(2-methoxy-phenyl)-ureido]-phenyl}-piperazine-1-carboxylic acid [2-chloro-4-(2-hydroxy-ethoxy)-phenyl]-amide]"
226 to 228 °C,≥ 50%,"COc1ccc(C)cc1NC(=O)Nc1ccc(N2CCN(C(=O)Nc3ccc(N)cc3Cl)CC2)cc1 [Example 168, 4-{4-[3-(2-methoxy-5-methyl-phenyl)-ureido]-phenyl}-piperazine-1-carboxylic acid (4-amino-2-chloro-phenyl)-amide]"
166 to 167 °C,≥ 50%,"Cc1nc(NC(=O)Nc2ccc(N3CCN(C(=O)Nc4ccc(OCCO)cc4C(F)(F)F)CC3)cc2)sc1C [Example 225, 4-{4-[3-(4,5-dimethyl-thiazol-2-yl)-ureido]-phenyl}-piperazine-1-carboxylic acid [4-(2-hydroxy-ethoxy)-2-trifluoromethyl-phenyl]-amide]"
197 to 199 °C,≥ 50%,"CCOc1ccc(F)cc1NC(=O)Nc1ccc(N2CCN(C(=O)Nc3c(C)cccc3Cl)CC2)cc1 [Example 91, 4-{4-[3-(2-ethoxy-5-fluoro-phenyl)-ureido]-phenyl}-piperazine-1-carboxylic acid (2-chloro-6-methyl-phenyl)-amide]"
213 to 214 °C,≥ 50%,"COc1ccc(C)cc1NC(=O)Nc1ccc(N2CCN(C(=O)Nc3ccccc3C(F)(F)F)CC2)nc1 [Example 137, 4-{5-[3-(2-methoxy-5-methyl-phenyl)-ureido]-pyridin-2-yl}-piperazine-1-carboxylic acid (2-trifluoromethyl-phenyl)-amide]"
101 to 105 °C,≥ 50%,"COc1cc(NC(=O)Nc2ccc(C3CCN(C(=O)Nc4ccc(OCCO)cc4Cl)CC3)cc2)cc(OC)c1 [Example 262, 4-{4-[3-(3,5-dimethoxy-phenyl)-ureido]-phenyl}-piperidine-1-carboxylic acid [2-chloro-4-(2-hydroxy-ethoxy)-phenyl]-amide]"
146 to 148 °C,≥ 50%,"COc1ccc(C)cc1NC(=O)Nc1ccc(N2CCN(C(=O)Oc3c(C)cccc3Cl)CC2)cc1 [Example 197, 4-{4-[3-(2-methoxy-5-methyl-phenyl)-ureido]-phenyl}-piperazine-1-carboxylic acid 2-chloro-6-methyl-phenyl ester]"
139 to 142 °C,≥ 50%,"COc1ccc(C)cc1NC(=O)Nc1ccc(C2=CCN(C(=O)Nc3cc(OCCO)ccc3Cl)CC2)cc1 [Example 273, 4-{4-[3-(2-methoxy-5-methyl-phenyl)-ureido]-phenyl}-3,6-dihydro-2H-pyridine-1-carboxylic acid [2-chloro-5-(2-hydroxy-ethoxy)-phenyl]-amide]"
215 to 217 °C,≥ 50%,"CCOc1ccccc1NC(=O)Nc1ccc(N2CCN(C(=O)Nc3c(C)cccc3Cl)CC2)cc1 [Example 82, 4-{4-[3-(2-ethoxy-phenyl)-ureido]-phenyl}-piperazine-1-carboxylic acid (2-chloro-6-methyl-phenyl)-amide]"
231 to 233 °C,≥ 50%,"COc1ccc(Cl)cc1NC(=O)Nc1ccc(N2CCN(C(=O)Nc3ccccc3Cl)CC2)cc1 [Example 78, 4-{4-[3-(5-chloro-2-methoxy-phenyl)-ureido]-phenyl}-piperazine-1-carboxylic acid (2-chloro-phenyl)-amide]"

# The remaining lines, values behind:
SMILES,melting point,inhibition at 0.1 µg/mL (mouse DGAT1)
"CCOc1ccc(Cl)cc1NC(=O)Nc1ccc(N2CCN(C(=O)Nc3ncccc3C)CC2)nc1 [Example 299, 4-{5-[3-(5-chloro-2-ethoxy-phenyl)-ureido]-pyridin-2-yl}-piperazine-1-carboxylic acid (3-methyl-pyridin-2-yl)-amide]",214 to 215 °C,≥ 50%
"Cc1ccc(Cl)cc1NC(=O)Nc1ccc(N2CCN(C(=O)OC(C)(C)C)CC2)cc1 [Example 35, 4-{4-[3-(5-chloro-2-methyl-phenyl)-ureido]-phenyl}-piperazine-1-carboxylic acid tert-butyl ester]",200 °C,≥ 50%
"CCOc1ccccc1NC(=O)Nc1ccc(N2CCN(C(=O)Nc3c(F)cccc3C(F)(F)F)CC2)cc1 [Example 117, 4-{4-[3-(2-ethoxy-phenyl)-ureido]-phenyl}-piperazine-1-carboxylic acid (2-fluoro-6-trifluoromethyl-phenyl)-amide]",139 to 141 °C,≥ 50%
"CCCCOc1ccc(NC(=O)Nc2ccc(N3CCN(C(=O)Nc4c(C)cccc4Cl)CC3)cc2)cc1 [Example 162, 4-{4-[3-(4-butoxy-phenyl)-ureido]-phenyl}-piperazine-1-carboxylic acid (2-chloro-6-methyl-phenyl)-amide]",218 to 219 °C,≥ 50%
"Cc1cccc(Cl)c1NC(=O)N1CCN(c2ccc(NC(=O)Nc3ccc(N(C)C)cc3)cc2)CC1 [Example 156, 4-{4-[3-(4-dimethylamino-phenyl)-ureido]-phenyl}-piperazine-1-carboxylic acid (2-chloro-6-methyl-phenyl)-amide]",214 to 217 °C,≥ 50%
"CCc1ccc(NC(=O)Nc2ccc(N3CCN(C(=O)Nc4c(C)cccc4Cl)CC3)cc2)cc1 [Example 160, 4-{4-[3-(4-ethyl-phenyl)-ureido]-phenyl}-piperazine-1-carboxylic acid (2-chloro-6-methyl-phenyl)-amide]",239 to 241 °C,≥ 50%
"CC(C)(C)c1csc(NC(=O)Nc2ccc(N3CCN(C(=O)Nc4ccc(OCCO)cc4C(F)(F)F)CC3)cc2)n1 [Example 224, 4-{4-[3-(4-tert-butyl-thiazol-2-yl)-ureido]-phenyl}-piperazine-1-carboxylic acid [4-(2-hydroxy-ethoxy)-2-trifluoromethyl-phenyl]-amide]",130 to 132 °C,≥ 50%
"CCOP(=O)(O)Cc1ccc(NC(=O)N2CCN(c3ccc(NC(=O)Nc4cc(C)ccc4OC)cc3)CC2)c(C)c1 [Example 391, {4-[(4-{4-[3-(2-methoxy-5-methyl-phenyl)-ureido]-phenyl}-piperazine-1-carbonyl)-amino]-3-methyl-benzyl}-phosphonic acid monoethyl ester]",165 to 173 °C,≥ 50%
"CCOc1ccccc1NC(=O)Nc1ccc(N2CCN(C(=O)Nc3c(C)cccc3Cl)CC2)nc1 [Example 141, 4-{5-[3-(2-ethoxy-phenyl)-ureido]-pyridin-2-yl}-piperazine-1-carboxylic acid (2-chloro-6-methyl-phenyl)-amide]",185 to 186 °C,≥ 50%
"COc1ccc(F)cc1NC(=O)Nc1ccc(N2CCN(C(=O)Nc3ncccc3C)CC2)nc1 [Example 298, 4-{5-[3-(5-fluoro-2-methoxy-phenyl)-ureido]-pyridin-2-yl}-piperazine-1-carboxylic acid (3-methyl-pyridin-2-yl)-amide]",196 to 198 °C,≥ 50%
